Experimental data reported in PubChem BioAssay (NCI).
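Cultured in 96-well plates, cells were exposed to test compound for 48 hours across five concentrations. At the GI50, growth is halved. The concentration for full growth arrest is given as TGI.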

Legend:
Test in all cases: DTP human tumour cell line panel, 48 h
SK-OV-3 ovarian = test system: SK-OV-3 ovarian
OVCAR-8 ovarian = test system: OVCAR-8 ovarian
SR leukemia = test system: SR leukemia
SK-MEL-28 melanoma = test system: SK-MEL-28 melanoma
OVCAR-4 ovarian = test system: OVCAR-4 ovarian
HT29 colon = test system: HT29 colon
NCI/ADR-RES ovarian = test system: NCI/ADR-RES ovarian
SN12C renal = test system: SN12C renal
HL-60(TB) leukemia = test system: HL-60(TB) leukemia
EKVX NSCLC = test system: EKVX NSCLC
CAKI-1 renal = test system: CAKI-1 renal
A549 NSCLC = test system: A549 NSCLC
MOLT-4 leukemia = test system: MOLT-4 leukemia
T-47D breast = test system: T-47D breast
KM12 colon = test system: KM12 colon
IGROV1 ovarian = test system: IGROV1 ovarian
UACC-257 melanoma = test system: UACC-257 melanoma
PC-3 prostate = test system: PC-3 prostate
HCT-15 colon = test system: HCT-15 colon
UO-31 renal = test system: UO-31 renal
SW-620 colon = test system: SW-620 colon
MALME-3M melanoma = test system: MALME-3M melanoma
HS 578T breast = test system: HS 578T breast
MCF7 breast = test system: MCF7 breast
SF-268 CNS = test system: SF-268 CNS
RPMI-8226 leukemia = test system: RPMI-8226 leukemia
HCC-2998 colon = test system: HCC-2998 colon
HOP-92 NSCLC = test system: HOP-92 NSCLC
CCRF-CEM leukemia = test system: CCRF-CEM leukemia
BT-549 breast = test system: BT-549 breast
U251 CNS = test system: U251 CNS
HOP-62 NSCLC = test system: HOP-62 NSCLC
SNB-75 CNS = test system: SNB-75 CNS
NCI-H23 lung = test system: NCI-H23 lung
NCI-H522 lung = test system: NCI-H522 lung
SK-MEL-2 melanoma = test system: SK-MEL-2 melanoma
786-0 renal = test system: 786-0 renal
NCI-H460 lung = test system: NCI-H460 lung
M14 melanoma = test system: M14 melanoma
HCT-116 colon = test system: HCT-116 colon
DU-145 prostate = test system: DU-145 prostate
OVCAR-3 ovarian = test system: OVCAR-3 ovarian
SNB-19 CNS = test system: SNB-19 CNS
COLO 205 colon = test system: COLO 205 colon
UACC-62 melanoma = test system: UACC-62 melanoma
SF-539 CNS = test system: SF-539 CNS
ACHN renal = test system: ACHN renal
MDA-MB-435 = test system: MDA-MB-435
TK-10 renal = test system: TK-10 renal
MDA-MB-231 breast = test system: MDA-MB-231 breast
RXF 393 renal = test system: RXF 393 renal
SK-MEL-5 melanoma = test system: SK-MEL-5 melanoma
K-562 leukemia = test system: K-562 leukemia
LOX IMVI melanoma = test system: LOX IMVI melanoma
OVCAR-5 ovarian = test system: OVCAR-5 ovarian
SF-295 CNS = test system: SF-295 CNS
A498 renal = test system: A498 renal
NCI-H226 lung = test system: NCI-H226 lung

`O=C1/C(=C/c2ccc(O)c(O)c2)COc2ccc(-c3ccccc3)cc21` gave a GI50 (SK-OV-3 ovarian) of 4.77 µM, a TGI (SK-OV-3 ovarian) of 37.7 µM and a GI50 (OVCAR-8 ovarian) of 3.29 µM. For the same compound, the TGI (OVCAR-8 ovarian) was 22 µM, the GI50 (SR leukemia) was 0.616 µM and the GI50 (SK-MEL-28 melanoma) was 1.6 µM. The TGI (SK-MEL-28 melanoma) was 3.07 µM, the GI50 (OVCAR-4 ovarian) was 2.2 µM and the TGI (OVCAR-4 ovarian) was 10.2 µM. The GI50 (HT29 colon) was 1.5 µM, the TGI (HT29 colon) was 3.16 µM and the GI50 (NCI/ADR-RES ovarian) was 2.24 µM. The TGI (NCI/ADR-RES ovarian) was over 26.8 µM, the GI50 (SN12C renal) was 2.47 µM and the TGI (SN12C renal) was 10.6 µM. For the same compound, the GI50 (HL-60(TB) leukemia) was 0.435 µM, the TGI (HL-60(TB) leukemia) was 4.47 µM and the GI50 (EKVX NSCLC) was 5.39 µM. It also gave a TGI (EKVX NSCLC) of 18.1 µM, a GI50 (CAKI-1 renal) of 3.66 µM and a TGI (CAKI-1 renal) of 33.2 µM. It also gave a GI50 (A549 NSCLC) of 3.16 µM, a TGI (A549 NSCLC) of 18.1 µM and a GI50 (MOLT-4 leukemia) of 0.531 µM. For the same compound, the TGI (MOLT-4 leukemia) was 4.73 µM, the GI50 (T-47D breast) was 0.959 µM and the TGI (T-47D breast) was 3.61 µM. The GI50 (KM12 colon) was 1.42 µM, the TGI (KM12 colon) was 3.39 µM and the GI50 (IGROV1 ovarian) was 1.39 µM. For the same compound, the TGI (IGROV1 ovarian) was 6.41 µM, the GI50 (UACC-257 melanoma) was 3.89 µM and the TGI (UACC-257 melanoma) was 16.9 µM. The GI50 (PC-3 prostate) was 1.8 µM, the TGI (PC-3 prostate) was 10.7 µM and the GI50 (HCT-15 colon) was 0.697 µM. The TGI (HCT-15 colon) was 2.24 µM, the GI50 (UO-31 renal) was 1.22 µM and the TGI (UO-31 renal) was 2.93 µM. The GI50 (SW-620 colon) was 0.875 µM, the TGI (SW-620 colon) was 2.46 µM and the GI50 (MALME-3M melanoma) was 1.7 µM. For the same compound, the TGI (MALME-3M melanoma) was 5.55 µM, the GI50 (HS 578T breast) was 3.21 µM and the TGI (HS 578T breast) was 13.9 µM. For the same compound, the GI50 (MCF7 breast) was 0.666 µM, the TGI (MCF7 breast) was 5.06 µM and the GI50 (SF-268 CNS) was 2.11 µM. It also gave a TGI (SF-268 CNS) of 7.33 µM, a GI50 (RPMI-8226 leukemia) of 0.187 µM and a TGI (RPMI-8226 leukemia) of 0.588 µM. It also gave a GI50 (HCC-2998 colon) of 1.49 µM, a TGI (HCC-2998 colon) of 2.98 µM and a GI50 (HOP-92 NSCLC) of 1.74 µM. For the same compound, the TGI (HOP-92 NSCLC) was 8.59 µM, the GI50 (CCRF-CEM leukemia) was 0.329 µM and the GI50 (BT-549 breast) was 2.37 µM. The TGI (BT-549 breast) was 10.6 µM, the GI50 (U251 CNS) was 1.45 µM and the TGI (U251 CNS) was 3.38 µM. The GI50 (HOP-62 NSCLC) was 3.55 µM, the TGI (HOP-62 NSCLC) was 11.6 µM and the GI50 (SNB-75 CNS) was 2.98 µM. It also gave a TGI (SNB-75 CNS) of 11.6 µM, a GI50 (NCI-H23 lung) of 2.28 µM and a TGI (NCI-H23 lung) of 10.9 µM. For the same compound, the GI50 (NCI-H522 lung) was 0.334 µM, the TGI (NCI-H522 lung) was 1.16 µM and the GI50 (SK-MEL-2 melanoma) was 3.64 µM. The TGI (SK-MEL-2 melanoma) was 10.7 µM, the GI50 (786-0 renal) was 1.94 µM and the TGI (786-0 renal) was 5.55 µM. It also gave a GI50 (NCI-H460 lung) of 1.99 µM, a TGI (NCI-H460 lung) of 5.67 µM and a GI50 (M14 melanoma) of 2.02 µM. It also gave a TGI (M14 melanoma) of 5.28 µM, a GI50 (HCT-116 colon) of 1.23 µM and a TGI (HCT-116 colon) of 2.65 µM. For the same compound, the GI50 (DU-145 prostate) was 1.77 µM, the TGI (DU-145 prostate) was 4.48 µM and the GI50 (OVCAR-3 ovarian) was 0.874 µM. For the same compound, the TGI (OVCAR-3 ovarian) was 3.48 µM, the GI50 (SNB-19 CNS) was 3.51 µM and the TGI (SNB-19 CNS) was 14.7 µM. The GI50 (COLO 205 colon) was 0.732 µM, the TGI (COLO 205 colon) was 2.15 µM and the GI50 (UACC-62 melanoma) was 2.01 µM. The TGI (UACC-62 melanoma) was 5.78 µM, the GI50 (SF-539 CNS) was 1.91 µM and the TGI (SF-539 CNS) was 3.89 µM. It also gave a GI50 (ACHN renal) of 1.53 µM, a TGI (ACHN renal) of 3.22 µM and a GI50 (MDA-MB-435) of 1.17 µM. It also gave a TGI (MDA-MB-435) of 3.48 µM, a GI50 (TK-10 renal) of 1.73 µM and a TGI (TK-10 renal) of 6.91 µM. The GI50 (MDA-MB-231 breast) was 2.26 µM, the TGI (MDA-MB-231 breast) was 8.47 µM and the GI50 (RXF 393 renal) was 1.71 µM. For the same compound, the TGI (RXF 393 renal) was 3.86 µM, the GI50 (SK-MEL-5 melanoma) was 1.57 µM and the TGI (SK-MEL-5 melanoma) was 3.77 µM. The GI50 (K-562 leukemia) was 1.85 µM, the TGI (K-562 leukemia) was 8.31 µM and the GI50 (LOX IMVI melanoma) was 1.43 µM. The TGI (LOX IMVI melanoma) was 2.84 µM, the GI50 (OVCAR-5 ovarian) was 3.71 µM and the TGI (OVCAR-5 ovarian) was 16.1 µM. It also gave a GI50 (SF-295 CNS) of 2.84 µM, a TGI (SF-295 CNS) of 13 µM and a GI50 (A498 renal) of 2.2 µM. For the same compound, the TGI (A498 renal) was 7.71 µM, the GI50 (NCI-H226 lung) was 4.15 µM and the TGI (NCI-H226 lung) was 32.8 µM.
